Results reported in ChEMBL document CHEMBL6177930, “2-(4-Bromobenzyl) tethered 4-amino aryl/alkyl-5,6,7,8-tetrahydrobenzo[4,5]thieno[2,3-d]pyrimidines: design, synthesis, anticancer assessment via dual topoisomerase-I/II inhibition, and in silico studies” (RSC Med Chem, 2025).
Calls of active or inactive are those of the source. The calls are words filed in the database; no cut-off is given here.

Legend:
[1] = tested on: Mitochondrial membrane; assay: Induction of mitochondrial membrane potential loss in human FaDu cells assessed as decrease in green fluorescence incubated for 48 hrs by Rhodamine 123 staining based fluorescence microscopy analysis; type: cell membranes; conditions: dose 1-5 µM
[2] = tested on: FaDu; assay: Induction of autophagy in human FaDu cells assessed as reduction in cell density at 1 to 5 uM measured after 48 hrs by acridine orange staining based fluorescence microscopy analysis; type: functional; conditions: dose 1-5 µM
[3] = tested on: FaDu; assay: Induction of apoptosis in human FaDu cells assessed as apoptotic bodies at 1 to 5 uM by DAPI staining based analysis; type: functional, cell-based; conditions: dose 1-5 µM
[4] = tested on: MCF7; assay: Antiproliferative activity against human MCF7 cells assessed as inhibition of cell growth at 10 uM measured after 48 to 72 hrs by MTT assay relative to control; type: functional; conditions: time 48-72 hrs
[5] = tested on: A549; assay: Antiproliferative activity against human A549 cells assessed as inhibition of cell growth at 10 uM measured after 48 to 72 hrs by MTT assay relative to control; type: functional; conditions: time 48-72 hrs
[6] = tested on: MDA-MB-231; assay: Antiproliferative activity against human MDA-MB-231 cells assessed as inhibition of cell growth at 10 uM measured after 48 to 72 hrs by MTT assay relative to control; type: functional; conditions: time 48-72 hrs
[7] = Antiproliferative activity against human HCC cells assessed as inhibition of cell growth at 10 uM measured after 48 to 72 hrs by MTT assay relative to control; type: functional; conditions: time 48-72 hrs
[8] = tested on: T47D; assay: Antiproliferative activity against human T47D cells assessed as inhibition of cell growth at 10 uM measured after 48 to 72 hrs by MTT assay relative to control; type: functional; conditions: time 48-72 hrs
[9] = tested on: FaDu; assay: Antiproliferative activity against human FaDu cells assessed as inhibition of cell growth measured after 48 hrs by MTT assay; type: functional, cell-based
[10] = tested on: FaDu; assay: Antiproliferative activity against human FaDu cells assessed as inhibition of cell growth measured after 72 hrs by MTT assay; type: functional, cell-based
[11] = tested on: FaDu; assay: Induction of morphological changes in human FaDu cells assessed as reduction in cell density at 1 uM incubated for 48 hrs by bright field microscope based analysis; type: functional
[12] = tested on: FaDu; assay: Induction of morphological changes in human FaDu cells assessed as appearance of rounded cells at 1 uM incubated for 48 hrs by bright field microscope based analysis; type: functional, cell-based
[13] = tested on: FaDu; assay: Induction of morphological changes in human FaDu cells assessed as appearance of detached cells at 1 uM incubated for 48 hrs by bright field microscope based analysis; type: functional, cell-based
[14] = tested on: FaDu; assay: Induction of morphological changes in human FaDu cells assessed as appearance of rounded cells at 2 to 5 uM incubated for 48 hrs by bright field microscope based analysis; type: functional, cell-based; conditions: dose 2-5 µM
[15] = tested on: FaDu; assay: Induction of apoptosis in human FaDu cells assessed as nuclear changes at 1 to 5 uM by DAPI staining based analysis; type: functional, cell-based; conditions: dose 1-5 µM
[16] = tested on: FaDu; assay: Induction of apoptosis in human FaDu cells assessed as chromatin condensation at 1 to 5 uM by DAPI staining based analysis; type: functional, cell-based; conditions: dose 1-5 µM
[17] = tested on: FaDu; assay: Inhibition of cell migration in human FaDu cells assessed as reduction in wound closure at 5 uM measured after 48 hrs by bright field microscopic analysis; type: functional, cell-based
[18] = tested on: FaDu; assay: Inhibition of cell migration in human FaDu cells assessed as reduction in wound closure at 1 to 2 uM measured after 48 hrs by bright field microscopic analysis; type: functional, cell-based; conditions: dose 1-2 µM
[19] = tested on: FaDu; assay: Inhibition of colony formation in human FaDu cells assessed as reduction in colony formation at 1 to 5 uM incubated for 48 hrs crystal violet staining based analysis (reference value: 62.58%); type: functional; conditions: dose 1-5 µM
[20] = tested on: FaDu; assay: Upregulation of LC3A/B level in human FaDu cells measured after 48 hrs by Western blot analysis; type: functional, cell-based; conditions: dose 1-5 µM
[21] = tested on: MCF7; assay: Induction of cell cycle arrest in human MCF7 cells assessed as accumulation of cells at S phase measured after 24 hrs by PI staining based flow cytometry analysis (reference value: 24.7%); type: functional
[22] = tested on: MCF7; assay: Induction of cell cycle arrest in human MCF7 cells assessed as accumulation of cells at G2/M phase measured after 24 hrs by PI staining based flow cytometry analysis (reference value: 14.2%); type: functional
[23] = biological target: DNA topoisomerase 2-alpha (Homo sapiens) (UniProt P11388); assay: Inhibition of human topoisomerase-II alpha assessed as reduction in decatenation activity using kinetoplast DNA as substrate incubated for 30 mins by EtBr staining based agarose gel electrophoresis method
[24] = biological target: T1, Prostaglandin G/H synthase 1 (Ovis aries) (UniProt P05979); assay: Inhibition of ovine COX-1 at 10 uM relative to control
T1 sequence (whole entry): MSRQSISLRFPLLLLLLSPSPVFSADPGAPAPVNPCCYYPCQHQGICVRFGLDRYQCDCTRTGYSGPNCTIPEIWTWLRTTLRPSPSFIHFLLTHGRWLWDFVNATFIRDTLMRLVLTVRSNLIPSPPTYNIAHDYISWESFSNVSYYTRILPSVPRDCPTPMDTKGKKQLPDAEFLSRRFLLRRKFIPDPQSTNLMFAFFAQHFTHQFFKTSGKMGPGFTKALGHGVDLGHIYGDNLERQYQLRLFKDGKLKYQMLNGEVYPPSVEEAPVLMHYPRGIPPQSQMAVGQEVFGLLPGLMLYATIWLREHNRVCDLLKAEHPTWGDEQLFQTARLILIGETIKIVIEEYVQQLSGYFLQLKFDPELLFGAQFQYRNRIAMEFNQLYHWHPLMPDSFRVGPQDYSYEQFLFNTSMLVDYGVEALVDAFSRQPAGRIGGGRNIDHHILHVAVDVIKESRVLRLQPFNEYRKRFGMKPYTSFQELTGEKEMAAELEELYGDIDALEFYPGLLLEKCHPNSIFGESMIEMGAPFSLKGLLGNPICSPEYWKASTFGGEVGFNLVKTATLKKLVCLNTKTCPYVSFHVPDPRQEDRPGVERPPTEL

[25] = biological target: T2, Prostaglandin G/H synthase 2 (Homo sapiens) (UniProt P35354); assay: Inhibition of human recombinant COX-2 at 10 uM relative to control
T2 sequence (whole entry): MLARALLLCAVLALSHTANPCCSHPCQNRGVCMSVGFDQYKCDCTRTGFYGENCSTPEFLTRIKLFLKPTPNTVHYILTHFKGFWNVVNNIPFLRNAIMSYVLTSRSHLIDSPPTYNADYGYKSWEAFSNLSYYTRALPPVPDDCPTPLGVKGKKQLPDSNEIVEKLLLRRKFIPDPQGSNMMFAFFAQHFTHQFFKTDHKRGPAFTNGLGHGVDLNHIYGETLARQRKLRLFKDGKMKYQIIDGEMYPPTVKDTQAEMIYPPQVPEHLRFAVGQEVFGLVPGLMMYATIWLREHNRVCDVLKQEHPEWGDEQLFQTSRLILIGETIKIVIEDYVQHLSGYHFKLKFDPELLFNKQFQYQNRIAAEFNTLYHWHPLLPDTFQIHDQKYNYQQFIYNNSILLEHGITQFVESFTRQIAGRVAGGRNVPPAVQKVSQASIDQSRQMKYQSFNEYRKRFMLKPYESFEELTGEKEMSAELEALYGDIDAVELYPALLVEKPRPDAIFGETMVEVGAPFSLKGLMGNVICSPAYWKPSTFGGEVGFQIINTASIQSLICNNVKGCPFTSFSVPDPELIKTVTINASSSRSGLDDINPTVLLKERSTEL

Chain of DNA topoisomerase 2-alpha (Homo sapiens) (P11388 whole entry): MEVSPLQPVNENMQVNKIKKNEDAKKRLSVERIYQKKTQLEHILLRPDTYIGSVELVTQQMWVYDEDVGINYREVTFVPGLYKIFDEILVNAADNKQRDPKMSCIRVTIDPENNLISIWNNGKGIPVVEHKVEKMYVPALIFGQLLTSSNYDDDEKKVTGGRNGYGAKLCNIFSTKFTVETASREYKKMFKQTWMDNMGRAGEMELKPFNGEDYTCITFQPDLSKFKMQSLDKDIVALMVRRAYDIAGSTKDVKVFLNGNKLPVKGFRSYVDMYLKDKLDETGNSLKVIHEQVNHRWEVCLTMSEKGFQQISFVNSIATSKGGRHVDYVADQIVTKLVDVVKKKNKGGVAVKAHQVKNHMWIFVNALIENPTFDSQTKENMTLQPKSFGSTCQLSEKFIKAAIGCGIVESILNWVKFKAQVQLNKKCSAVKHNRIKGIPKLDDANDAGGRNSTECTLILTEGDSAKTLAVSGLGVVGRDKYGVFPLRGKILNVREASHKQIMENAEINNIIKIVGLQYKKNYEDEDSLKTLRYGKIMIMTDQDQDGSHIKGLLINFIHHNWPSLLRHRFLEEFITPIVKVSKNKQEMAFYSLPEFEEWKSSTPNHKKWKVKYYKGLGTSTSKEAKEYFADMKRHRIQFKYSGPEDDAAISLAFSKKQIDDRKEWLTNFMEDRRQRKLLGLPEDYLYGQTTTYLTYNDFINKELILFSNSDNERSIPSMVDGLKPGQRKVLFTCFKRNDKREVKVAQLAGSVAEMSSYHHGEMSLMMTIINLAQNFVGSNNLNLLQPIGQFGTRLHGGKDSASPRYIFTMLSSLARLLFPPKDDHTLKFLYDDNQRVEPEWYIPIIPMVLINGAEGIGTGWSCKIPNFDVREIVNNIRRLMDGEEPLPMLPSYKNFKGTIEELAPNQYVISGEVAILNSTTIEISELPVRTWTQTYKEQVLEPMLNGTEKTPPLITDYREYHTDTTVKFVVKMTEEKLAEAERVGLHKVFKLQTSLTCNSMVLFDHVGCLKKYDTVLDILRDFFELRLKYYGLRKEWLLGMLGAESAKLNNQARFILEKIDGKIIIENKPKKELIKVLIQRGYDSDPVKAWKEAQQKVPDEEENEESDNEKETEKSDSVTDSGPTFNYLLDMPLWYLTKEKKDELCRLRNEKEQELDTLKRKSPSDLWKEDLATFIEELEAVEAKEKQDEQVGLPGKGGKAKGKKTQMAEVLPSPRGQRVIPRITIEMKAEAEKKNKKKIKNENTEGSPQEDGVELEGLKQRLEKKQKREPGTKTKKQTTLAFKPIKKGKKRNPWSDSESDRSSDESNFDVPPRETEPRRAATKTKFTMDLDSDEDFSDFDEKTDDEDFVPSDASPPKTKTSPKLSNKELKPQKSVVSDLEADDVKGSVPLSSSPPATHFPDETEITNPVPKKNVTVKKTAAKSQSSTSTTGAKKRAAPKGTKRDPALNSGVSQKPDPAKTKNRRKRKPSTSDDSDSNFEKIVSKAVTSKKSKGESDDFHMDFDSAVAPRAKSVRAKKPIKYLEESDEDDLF

Q: What does the source list for `Brc1ccc(Cc2nc(N3CCN(c4ccncc4)CC3)c3c4c(sc3n2)CCCC4)cc1`?
A: Activity [1]: Dose-dependent-effect; Activity [2]: Active; Activity [3]: Active; inhibition at 10 µM [4]: 15.1%; inhibition at 10 µM [5]: 39.2%; inhibition at 10 µM [6]: 6.27%; inhibition at 10 µM [7]: 2.28%; inhibition at 10 µM [8]: 83.4%; IC50 [9]: 3060 nM; Activity ([9]; dose 0.5-50 µM): Dose-dependent-effect; IC50 [10]: 1730 nM; Activity ([10]; dose 0.5-50 µM): Dose-dependent-effect; Activity [11]: Active; Activity [12]: Active; Activity [13]: Active; Activity [14]: Active; Activity [15]: Active; Activity [16]: Active; inhibition [17]: Active; inhibition [18]: Active; inhibition (INH) [19]: 19.35%; Activity [20]: Dose-dependent-effect; Activity [21]: 17.8%; Activity [22]: 52.8%; inhibition [23]: Active; Compound Showed Higher Inhibition Activity Than Etoposide; inhibition [24]: 46.5%; inhibition [25]: 75.7%
